Data on 17 molecules can be found in patent US11986471B2, “Compounds and methods of use” (Tango Therapeutics, Inc., priority 2018, dated 2024).

What all share (assay type): biochemical
The target of assay [1] is T1, PRMT5 (Homo sapiens, UniProt O14744).
T1 construct: purchased Viva (custom protein)
Put plainly: PRMT5 IC50 assay with no cofactor. A digest of the protocol:
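IC50 against PRMT5 determined with SAM as cofactor, with no cofactor, and with MTA as cofactor. Ki derived as IC50/1.5 for the SAM assay and IC50/13.5 for the MTA assay; SAM Ki to MTA Ki ratio also reported.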

In assay [2] the target is T1, PRMT5. As to the kind of experiment: PRMT5 IC50 assay in the presence of MTA as cofactor. Conditions: for IC50: PRMT5, MTA as cofactor. Summed up: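 IC50 values were measured against human PRMT5 with SAM, with MTA, or with no cofactor. Ki was derived from IC50 as Ki=IC50/1.5 with SAM and Ki=IC50/13.5 with MTA, and the Ki(SAM)/Ki(MTA) ratio was then taken.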
Assay [3] addresses T1, PRMT5. As to the kind of experiment: PRMT5 IC50 assay in the presence of SAM as cofactor. A digest of the protocol: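 Each compound is tested on PRMT5 in the presence of SAM, of MTA, and without any cofactor. Ki values are then back-calculated using fixed factors of 1.5 (SAM) and 13.5 (MTA), and the two Ki values are compared as a ratio.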
The mark [4] stands for this setting: ratio between the Ki in the presence of SAM and the Ki in the presence of MTA.
The mark [5] stands for this setting: ratio between Ki in the presence of SAM and Ki in the presence of MTA.

T1 sequence (O14744 whole entry): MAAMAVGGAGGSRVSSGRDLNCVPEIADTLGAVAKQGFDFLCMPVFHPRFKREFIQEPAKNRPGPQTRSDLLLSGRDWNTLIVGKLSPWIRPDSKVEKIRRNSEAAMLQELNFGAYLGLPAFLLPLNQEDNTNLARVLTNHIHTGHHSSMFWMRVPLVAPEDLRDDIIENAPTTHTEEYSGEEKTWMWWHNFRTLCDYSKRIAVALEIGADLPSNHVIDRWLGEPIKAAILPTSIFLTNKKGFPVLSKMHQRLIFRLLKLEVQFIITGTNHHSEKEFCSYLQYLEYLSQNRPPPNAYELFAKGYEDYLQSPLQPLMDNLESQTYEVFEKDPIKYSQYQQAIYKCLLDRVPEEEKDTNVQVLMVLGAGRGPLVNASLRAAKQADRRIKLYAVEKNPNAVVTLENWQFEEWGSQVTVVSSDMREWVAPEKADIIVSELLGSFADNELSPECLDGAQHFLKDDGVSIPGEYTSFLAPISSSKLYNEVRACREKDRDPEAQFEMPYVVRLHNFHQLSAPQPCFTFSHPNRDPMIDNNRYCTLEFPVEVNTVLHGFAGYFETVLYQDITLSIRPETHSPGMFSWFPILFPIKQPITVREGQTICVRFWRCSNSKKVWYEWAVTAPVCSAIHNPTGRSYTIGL
T1 sequence (Q9BQA1 whole entry partner): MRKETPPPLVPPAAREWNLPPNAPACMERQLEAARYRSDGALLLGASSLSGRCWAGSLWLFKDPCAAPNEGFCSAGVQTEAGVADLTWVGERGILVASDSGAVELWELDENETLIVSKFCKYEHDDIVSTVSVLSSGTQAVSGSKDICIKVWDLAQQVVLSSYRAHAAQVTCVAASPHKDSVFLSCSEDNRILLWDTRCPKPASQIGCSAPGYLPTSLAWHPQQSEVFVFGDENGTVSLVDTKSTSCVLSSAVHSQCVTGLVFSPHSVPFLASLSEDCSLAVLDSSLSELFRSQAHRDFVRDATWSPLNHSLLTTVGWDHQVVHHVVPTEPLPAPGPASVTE

As usually defined, the IC50 is the concentration needed to halve the response being measured. With `Cc1c(OCc2cnco2)ccc2c1CCN(C[C@@H](O)CNC(=O)c1ccnc(N[C@H]3C[C@H](O)C3)c1)C2` [Compound 552, N—((S)-2-hydroxy-3-(5-methyl-6-(oxazol-5-ylmethoxy)-3,4-dihydroisoquinolin-2(1H)-yl)propyl)-2-(((1r,3S)-3-hydroxycyclobutyl)amino)isonicotinamide], the IC50 was ≥ 5000 nM in assay [1], 500 to 5000 nM in assay [2] and 500 to 5000 nM in assay [3]. In addition, in assay [2] (setting [4]), the “SAM/MTA Ratio” value is “A (a Ki ratio greater than or equal to 10 fold between the Ki in the presence of SAM and the Ki in the presence of MTA)”.
`CC(=O)N1C[C@@H]2[C@H](C1)[C@H]2Nc1cc(C(=O)NC[C@H](O)CN2CCc3cc(OCc4ocnc4C)ccc3C2)ncn1` [Compound 620, 6-{[(1R,5S,6R)-3-acetyl-3-azabicyclo[3.1.0]hexan-6-yl]amino}-N-[(2S)-2-hydroxy-3-[6-[(4-methyl-1,3-oxazol-5-yl)methoxy]-1,2,3,4-tetrahydroisoquinolin-2-yl]propyl]pyrimidine-4-carboxamide]: the IC50 in assay [1] is ≥ 5000 nM; in assay [2], 500 to 5000 nM; in assay [3], 500 to 5000 nM. Moreover, in assay [2] (setting [4]), the “SAM/MTA Ratio” value is “A (a Ki ratio greater than or equal to 10 fold between the Ki in the presence of SAM and the Ki in the presence of MTA)”.
As for `Cc1ncoc1COc1ccc2c(c1)CCN(C[C@@H](O)CNC(=O)c1cc(NC3CCC3)nc(N3CCCCC3)c1)C2` [Compound 633, 2-(cyclobutylamino)-N-[(2S)-2-hydroxy-3-{6-[(4-methyl-1,3-oxazol-5-yl)methoxy]-1,2,3,4-tetrahydroisoquinolin-2-yl}propyl]-6-(piperidin-1-yl)pyridine-4-carboxamide], the IC50 in assay [1] (read-out: No Co-factor IC50) is ≥ 5000 nM; in assay [2] it was 50 to 500 nM; in assay [3] it was 500 to 5000 nM. Also, the “SAM/MTA Ratio” value in assay [2] (setting [5]) is “A (a Ki ratio greater than or equal to 10 fold between the Ki in the presence of SAM and the Ki in the presence of MTA)”.
For `Cc1c(OCc2cnco2)ccc2c1CCN(C[C@@H](O)CNC(=O)c1cc(N[C@H]3C[C@H](C(=O)N4CCC4)C3)ncn1)C2` [Compound 519, N-[(2S)-2-hydroxy-3-{5-methyl-6-[(1,3-oxazol-5-yl)methoxy]-1,2,3,4-tetrahydroisoquinolin-2-yl}propyl]-6-{[(1r,3r)-3-(azetidine-1-carbonyl)cyclobutyl]amino}pyrimidine-4-carboxamide], the IC50 is ≥ 5000 nM in assay [1], 500 to 5000 nM in assay [2] and 500 to 5000 nM in assay [3]. For the same molecule, in assay [2] (setting [4]), the “SAM/MTA Ratio” value is “A (a Ki ratio greater than or equal to 10 fold between the Ki in the presence of SAM and the Ki in the presence of MTA)”.
For the molecule `O=C(NC[C@H](O)CN1CCc2cc(OCc3cn[nH]c3)cc(F)c2C1)c1ccnc(NC2CCC2)c1` [Compound 596, 2-(cyclobutylamino)-N-[(2S)-3-[8-fluoro-6-(1H-pyrazol-4-ylmethoxy)-3,4-dihydro-1H-isoquinolin-2-yl]-2-hydroxy-propyl]pyridine-4-carboxamide], the IC50 fell in the range of 500 to 5000 nM in assay [1], 50 to 500 nM in assay [2] and 500 to 5000 nM in assay [3]. Besides, in assay [2] (setting [4]), the “SAM/MTA Ratio” value is “A (a Ki ratio greater than or equal to 10 fold between the Ki in the presence of SAM and the Ki in the presence of MTA)”.
As to `O=C1N[C@H]2[C@H](CS[C@H]2CCCCC(=O)N2CCC(Nc3cc(C(=O)NC[C@H](O)CN4CCc5cc(OCc6cnco6)ccc5C4)ncn3)CC2)N1` [Compound 265], the IC50 is 500 to 5000 nM in assay [1] (read-out: No Co-factor IC50), < 50 nM in assay [2] and 50 to 500 nM in assay [3]. In addition, the “SAM/MTA Ratio” value in assay [2] (setting [5]) was “A (a Ki ratio greater than or equal to 10 fold between the Ki in the presence of SAM and the Ki in the presence of MTA)”.
With `CC(=O)N1CCC(Nc2cc(C(=O)NC[C@H](O)CN3CCc4c(C)c(OCc5ocnc5C)cc(F)c4C3)cc(N3CCCCC3)n2)CC1` [Compound 653], the IC50 in assay [1] (read-out: No Co-factor IC50) is ≥ 5000 nM; in assay [2], 500 to 5000 nM; in assay [3] it was 500 to 5000 nM. The “SAM/MTA Ratio” value in assay [2] (setting [5]) was “A (a Ki ratio greater than or equal to 10 fold between the Ki in the presence of SAM and the Ki in the presence of MTA)”.
On to `O=C(NC[C@H](O)CN1CCc2cc(OCc3cnco3)ccc2C1)c1cc(NC2CCOCC2)ccn1` [Compound 511, (S)—N-(2-hydroxy-3-(6-(oxazol-5-ylmethoxy)-3,4-dihydroisoquinolin-2(1H)-yl)propyl)-4-((tetrahydro-2H-pyran-4-yl)amino)picolinamide], for which the IC50 in assay [1] was ≥ 5000 nM; in assay [2] it was 500 to 5000 nM; in assay [3], 500 to 5000 nM. For the same molecule, the “SAM/MTA Ratio” value in assay [2] (setting [4]) was “A (a Ki ratio greater than or equal to 10 fold between the Ki in the presence of SAM and the Ki in the presence of MTA)”.
Regarding `CO[C@H]1C[C@@H](Nc2cc(C(=O)NC[C@H](O)CN3CCc4c(ccc(OCc5cnco5)c4C)C3)ccn2)C1` [Compound 535], the IC50 in assay [1] is ≥ 5000 nM; in assay [2] it was 50 to 500 nM; in assay [3], 500 to 5000 nM. Moreover, in assay [2] (setting [4]), the “SAM/MTA Ratio” value was “A (a Ki ratio greater than or equal to 10 fold between the Ki in the presence of SAM and the Ki in the presence of MTA)”.
With `CC(=O)N1CCC(Nc2cccc(C(=O)NC[C@H](O)CN3CCc4c(ccc(OCc5cnco5)c4C)C3)c2)C1` (stereo partly drawn) [Compound 525, 3-[(1-acetylpyrrolidin-3-yl)amino]-N-[(2S)-2-hydroxy-3-{5-methyl-6-[(1,3-oxazol-5-yl)methoxy]-1,2,3,4-tetrahydroisoquinolin-2-yl}propyl]benzamide], the IC50 is ≥ 5000 nM in assay [1], 500 to 5000 nM in assay [2] and 500 to 5000 nM in assay [3]. For the same molecule, in assay [2] (setting [4]), the “SAM/MTA Ratio” value is “A (a Ki ratio greater than or equal to 10 fold between the Ki in the presence of SAM and the Ki in the presence of MTA)”.
Regarding `O=C(NC[C@H](O)CN1CCc2c(ccc(OCc3cnco3)c2Br)C1)c1cc(NC2CCCCC2)ncn1` [Compound 377, (S)—N-(3-(5-bromo-6-(oxazol-5-ylmethoxy)-3A-dihydroisoquinolin-2(1H)-yl)-2-hydroxypropyl)-6-(cyclohexylamino)pyrimidine-4-carboxamide], the results for the IC50 in assay [1] (read-out: No Co-factor IC50), in assay [2] and in assay [3] were ≥ 5000 nM, 500 to 5000 nM and 500 to 5000 nM, respectively. In assay [2] (setting [5]), the “SAM/MTA Ratio” value is “A (a Ki ratio greater than or equal to 10 fold between the Ki in the presence of SAM and the Ki in the presence of MTA)”.
As to `CC(=O)N1CC(Nc2nc(C(=O)NC[C@H](O)CN3CCc4cc(OCc5ocnc5C)ccc4C3)cc(N3CCCCC3)n2)C1` [Compound 608, (S)-2-((1-acetylazetidin-3-yl)amino)-N-(2-hydroxy-3-(6-((4-methyloxazol-5-yl)methoxy)-3,4-dihydroisoquinolin-2(1H)-yl)propyl)-6-(piperidin-1-yl)pyrimidine-4-carboxamide], the IC50 in assay [1] is ≥ 5000 nM; in assay [2] it was 50 to 500 nM; in assay [3], 500 to 5000 nM. The “SAM/MTA Ratio” value in assay [2] (setting [4]) was “A (a Ki ratio greater than or equal to 10 fold between the Ki in the presence of SAM and the Ki in the presence of MTA)”.
For the molecule `Cc1c(OCc2cnco2)ccc2c1CCN(C[C@@H](O)CNC(=O)c1ccnc(Nc3cccnc3)c1)C2` [Compound 531, N-[(2S)-2-hydroxy-3-{5-methyl-6-[(1,3-oxazol-5-yl)methoxy]-1,2,3,4-tetrahydroisoquinolin-2-yl}propyl]-2-[(pyridin-3-yl)amino]pyridine-4-carboxamide], the IC50 is ≥ 5000 nM in assay [1], 500 to 5000 nM in assay [2] and 500 to 5000 nM in assay [3]. For the same molecule, in assay [2] (setting [4]), the “SAM/MTA Ratio” value is “A (a Ki ratio greater than or equal to 10 fold between the Ki in the presence of SAM and the Ki in the presence of MTA)”.
In the case of `Cc1c(OCc2cnco2)ccc2c1CCN(C[C@@H](O)CNC(=O)c1ccnc(N[C@H]3C[C@H](CO)C3)c1)C2` [Compound 537, N—((S)-2-hydroxy-3-(5-methyl-6-(oxazol-5-ylmethoxy)-3N-dihydroisoquinolin-2(1H)-yl)propyl)-2-(((1r,3S)-3-(hydroxymethyl)cyclobutyl)amino)isonicotinamide], the figures for the IC50 in assay [1], in assay [2] and in assay [3] were ≥ 5000 nM, 50 to 500 nM and 500 to 5000 nM, respectively. The “SAM/MTA Ratio” value in assay [2] (setting [4]) is “A (a Ki ratio greater than or equal to 10 fold between the Ki in the presence of SAM and the Ki in the presence of MTA)”.
Turning to `CCCN(C)c1cc(C(=O)NC[C@H](O)CN2CCc3c(ccc(OCc4cnco4)c3Cl)C2)cc(NC2CCC2)n1` [Compound 453, (S)—N-(3-(5-chloro-6-(oxazol-5-ylmethoxy)-3N-dihydroisoquinolin-2(1H)-yl)-2-hydroxypropyl)-2-(cyclobutylamino)-6-(methyl(propyl)amino)isonicotinamide], the half-inhibitory concentration (IC50) in assay [1] was ≥ 5000 nM; in assay [2], 500 to 5000 nM; in assay [3], 500 to 5000 nM. For the same molecule, in assay [2] (setting [4]), the “SAM/MTA Ratio” value is “A (a Ki ratio greater than or equal to 10 fold between the Ki in the presence of SAM and the Ki in the presence of MTA)”.
Take `CC(=O)N1CCC(Nc2cc(C(=O)NC[C@H](O)CN3CCc4cc(OCc5ocnc5C)ccc4C3)cc(C(C)C)n2)CC1` [Compound 646, (S)-2-((1-acetylpiperidin-4-yl)amino)-N-(2-hydroxy-3-(6-((4-methyloxazol-5-yl)methoxy)-3,4-dihydroisoquinolin-2(1H)-yl)propyl)-6-isopropylisonicotinamide]: the IC50 in assay [1] (read-out: No Co-factor IC50) is 500 to 5000 nM; in assay [2] it was < 50 nM; in assay [3], 50 to 500 nM. The “SAM/MTA Ratio” value in assay [2] (setting [5]) was “A (a Ki ratio greater than or equal to 10 fold between the Ki in the presence of SAM and the Ki in the presence of MTA)”.
On to `Cc1c(OCc2cnco2)ccc2c1CCN(C[C@@H](O)CNC(=O)c1cc(N[C@H]3C[C@H](C(=O)N4CCCCC4)C3)ncn1)C2` [Compound 526], for which the IC50 in assay [1] was ≥ 5000 nM; in assay [2] it was 50 to 500 nM; in assay [3] it was 500 to 5000 nM. In addition, the “SAM/MTA Ratio” value in assay [2] (setting [4]) was “A (a Ki ratio greater than or equal to 10 fold between the Ki in the presence of SAM and the Ki in the presence of MTA)”.
